Data as given in patent publication US9302999B2, “Substituted triazoles as herbicides” (E. I. DU PONT DE NEMOURS AND COMPANY, priority 2012, dated 2016).

Tests used:
Format in all cases: in vivo
[1] = system: lambsquarters (Chenopodium album); test: Test C pre-/postemergence: lambsquarters
Summary of the method: (§1)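 Preemergence on seeds in loam/sand, postemergence on 2–18 cm (1–4-leaf) plants in peat-based medium; compounds in non-phytotoxic solvent with surfactant. After 13–15 days in greenhouse, visual rating versus controls, 0 (no effect) to 100 (complete control).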

[2] = system: velvetleaf (Abutilon theophrasti); test: Test C pre-/postemergence: velvetleaf
Summary of the method: as §1

corn (Zea mays) = test: Test A pre-/postemergence: corn
Summary of the method: (§2)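 Injury was scored visually on a 0 (no effect) to 100 (complete control) scale versus untreated controls roughly ten days after treatment in the greenhouse. Compounds, formulated in surfactant-containing non-phytotoxic solvent, went on as soil-directed preemergence spray or postemergence to one- to two-leaf plants 2–10 cm tall.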

[3] = system: crabgrass, large (large crabgrass, Digitaria sanguinalis); test: Test A pre-/postemergence: crabgrass, large
Summary of the method: as §2

[4] = system: wheat (Triticum aestivum); test: Test A pre-/postemergence: wheat
Summary of the method: as §2

[5] = system: foxtail, giant (giant foxtail, Setaria faberii); test: Test A pre-/postemergence: foxtail, giant
Summary of the method: as §2

[6] = system: ryegrass, Italian (Italian ryegrass, Lolium multiflorum); test: Test C pre-/postemergence: ryegrass, Italian
Summary of the method: as §1

[7] = system: sedge, umbrella (small-flower umbrella sedge Cyperus difformis); test: Test B flooded paddy: sedge, umbrella; details: Flood, applied to paddy water at 2-leaf stage, visually evaluated after 13 to 15 days
Summary of the method: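 Plants were grown to the 2-leaf stage, then pots were flooded to 3 cm above the soil and compounds were applied directly into the paddy water. Water depth was held for the whole test; after 13 to 15 days in a greenhouse, injury was visually rated against untreated controls (0 = no effect, 100 = complete control).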

[8] = system: johnsongrass (Sorghum halepense); test: Test C pre-/postemergence: johnsongrass
Summary of the method: as §1

[9] = Postemergence, 31 g ai/ha, scale 0 to 100 (0 no effect, 100 complete control)
[10] = Postemergence, 62 g ai/ha, scale 0 to 100 (0 no effect, 100 complete control)
[11] = Postemergence, 125 g ai/ha, scale 0 to 100, 0 no effect, 100 complete control
[12] = Postemergence, 250 g ai/ha, scale 0 to 100
[13] = Preemergence, 31 g ai/ha, scale of 0 to 100, 0 is no effect, 100 is complete control
[14] = Preemergence, 62 g ai/ha, scale of 0 to 100, 0 is no effect, 100 is complete control
[15] = Preemergence, 125 g ai/ha, scale 0 to 100, 0 no effect, 100 complete control
[16] = Preemergence, 250 g ai/ha, scale 0 to 100, 0 no effect, 100 complete control
[17] = Postemergence, 125 g ai/ha, 0 to 100 scale, 0 is no effect, 100 is complete control
[18] = Postemergence, 500 g ai/ha, visual rating on 0 to 100 scale (0 no effect, 100 complete control), approximately ten days
[19] = Preemergence, 125 g ai/ha, 0 to 100 scale where 0 is no effect and 100 is complete control
[20] = Preemergence, 500 g ai/ha, 0 to 100 scale (0 no effect, 100 complete control)
[21] = Postemergence, 250 g ai/ha, scale 0 to 100 (0 no effect, 100 complete control)
[22] = Preemergence, 31 g ai/ha, scale 0 (no effect) to 100 (complete control)
[23] = Postemergence, 500 g ai/ha, 0 to 100 scale, 0 is no effect, 100 is complete control
[24] = Preemergence, 125 g ai/ha, 0 to 100 scale (0 no effect, 100 complete control)
[25] = Preemergence, 500 g ai/ha, 0 to 100 scale, 0 is no effect, 100 is complete control

## COc1nn(-c2cccc(F)c2)nc1Cc1ccnc(C(F)(F)F)c1 [Compound 139]
[1]; [9]
  Plant response rating, Lambsquarters: 90
[1]; [10]
  Plant response rating, Lambsquarters: 95
[1]; [11]
  Plant response rating, Lambsquarters: 95
[1]; [12]
  Plant response rating, Lambsquarters: 98
[1]; [13]
  Plant response rating, Lambsquarters: 60
[1]; [14]
  Plant response rating, Lambsquarters: 70
[1]; [15]
  Plant response rating, Lambsquarters: 85
[1]; [16]
  Plant response rating, Lambsquarters: 90
[2]; [9]
  Plant response rating, Velvetleaf: 20
[2]; [10]
  Plant response rating, Velvetleaf: 35
[2]; [11]
  Plant response rating, Velvetleaf: 70
[2]; [12]
  Plant response rating, Velvetleaf: 75
[2]; [13]
  Plant response rating, Velvetleaf: 0
[2]; [14]
  Plant response rating, Velvetleaf: 10
[2]; [15]
  Plant response rating, Velvetleaf: 40
[2]; [16]
  Plant response rating, Velvetleaf: 40
Corn (Zea mays); [17]
  Corn plant response rating: 30
Corn (Zea mays); [18]
  Corn plant response rating: 50
Corn (Zea mays); [19]
  Plant response rating, Corn: 10
Corn (Zea mays); [20]
  Plant response rating, Corn: 30
[3]; [17]
  Crabgrass, Large plant response rating: 90
[3]; [18]
  Crabgrass, Large plant response rating: 90
[3]; [19]
  Plant response rating, Crabgrass, Large: 100
[3]; [20]
  Plant response rating, Crabgrass, Large: 100
[4]; [17]
  Plant response rating, Wheat: 30
[4]; [18]
  Wheat plant response rating: 40
[4]; [19]
  Plant response rating, Wheat: 10
[4]; [20]
  Plant response rating, Wheat: 50
[5]; [17]
  Foxtail, Giant plant response rating: 90
[5]; [18]
  Foxtail, Giant plant response rating: 100
[5]; [19]
  Plant response rating, Foxtail, Giant: 100
[5]; [20]
  Plant response rating, Foxtail, Giant: 100
[6]; [9]
  Plant response rating, Ryegrass, Italian: 25
[6]; [10]
  Plant response rating, Ryegrass, Italian: 30
[6]; [11]
  Plant response rating, Ryegrass, Italian: 30
[6]; [12]
  Plant response rating, Ryegrass, Italian: 40
[6]; [13]
  Plant response rating, Ryegrass, Italian: 35
[6]; [14]
  Plant response rating, Ryegrass, Italian: 60
[6]; [16]
  Plant response rating, Ryegrass, Italian: 90
[7]; 250 g ai/ha
  Plant response rating, Sedge, Umbrella (0 to 100 scale, 0 is no effect, 100 is complete control): 80
[8]; [9]
  Plant response rating, Johnsongrass: 30
[8]; [10]
  Plant response rating, Johnsongrass: 50
[8]; [11]
  Plant response rating, Johnsongrass: 80
[8]; [12]
  Plant response rating, Johnsongrass: 80
[8]; [13]
  Plant response rating, Johnsongrass: 15
[8]; [14]
  Plant response rating, Johnsongrass: 45
[8]; [15]
  Plant response rating, Johnsongrass: 100
[8]; [16]
  Plant response rating, Johnsongrass: 100

## CCCc1nn(-c2ccc(C(F)(F)F)cc2)nc1Oc1ccnc(C(F)(F)F)c1 [Compound 170]
[1]; [9]
  Plant response rating, Lambsquarters: 85
[1]; [10]
  Plant response rating, Lambsquarters: 95
[1]; [11]
  Plant response rating, Lambsquarters: 95
[1]; [21]
  Plant response rating, Lambsquarters: 98
[1]; [22]
  Plant response rating, Lambsquarters: 85
[1]; [14]
  Plant response rating, Lambsquarters: 85
[1]; [15]
  Plant response rating, Lambsquarters: 98
[1]; [16]
  Plant response rating, Lambsquarters: 98
[2]; [9]
  Plant response rating, Velvetleaf: 75
[2]; [10]
  Plant response rating, Velvetleaf: 85
[2]; [11]
  Plant response rating, Velvetleaf: 85
[2]; [21]
  Plant response rating, Velvetleaf: 90
[2]; [22]
  Plant response rating, Velvetleaf: 60
[2]; [14]
  Plant response rating, Velvetleaf: 100
[2]; [15]
  Plant response rating, Velvetleaf: 100
[2]; [16]
  Plant response rating, Velvetleaf: 100
Corn (Zea mays); [17]
  Plant response rating, Corn: 30
Corn (Zea mays); [23]
  Corn plant response rating: 50
Corn (Zea mays); [19]
  Plant response rating, Corn: 30
Corn (Zea mays); [20]
  Plant response rating, Corn: 40
[3]; [17]
  Plant response rating, Crabgrass, Large: 100
[3]; [23]
  Crabgrass, Large plant response rating: 100
[3]; [19]
  Plant response rating, Crabgrass, Large: 100
[3]; [20]
  Plant response rating, Crabgrass, Large: 100
[4]; [17]
  Plant response rating, Wheat: 40
[4]; [23]
  Wheat plant response rating: 50
[4]; [19]
  Plant response rating, Wheat: 60
[4]; [20]
  Plant response rating, Wheat: 80
[5]; [17]
  Plant response rating, Foxtail, Giant: 90
[5]; [23]
  Foxtail, Giant plant response rating: 90
[5]; [19]
  Plant response rating, Foxtail, Giant: 100
[5]; [20]
  Plant response rating, Foxtail, Giant: 100
[6]; [9]
  Plant response rating, Ryegrass, Italian: 15
[6]; [10]
  Plant response rating, Ryegrass, Italian: 35
[6]; [11]
  Plant response rating, Ryegrass, Italian: 35
[6]; [21]
  Plant response rating, Ryegrass, Italian: 70
[6]; [22]
  Plant response rating, Ryegrass, Italian: 55
[6]; [14]
  Plant response rating, Ryegrass, Italian: 90
[6]; [15]
  Plant response rating, Ryegrass, Italian: 95
[6]; [16]
  Plant response rating, Ryegrass, Italian: 95
[7]; 250 g ai/ha
  Plant response rating, Sedge, Umbrella (0 to 100 scale, 0 is no effect, 100 is complete control): 90
[8]; [9]
  Plant response rating, Johnsongrass: 20
[8]; [10]
  Plant response rating, Johnsongrass: 25
[8]; [11]
  Plant response rating, Johnsongrass: 80
[8]; [21]
  Plant response rating, Johnsongrass: 98
[8]; [22]
  Plant response rating, Johnsongrass: 50
[8]; [14]
  Plant response rating, Johnsongrass: 75
[8]; [15]
  Plant response rating, Johnsongrass: 95
[8]; [16]
  Plant response rating, Johnsongrass: 95

## FC(F)(F)c1ccc(-n2nc(Cl)c(Cc3ccnc(C(F)(F)F)c3)n2)cc1 [Compound 28]
[1]; [9]
  Plant response rating, Lambsquarters: 35
[1]; [10]
  Plant response rating, Lambsquarters: 35
[1]; [11]
  Plant response rating, Lambsquarters: 95
[1]; [12]
  Plant response rating, Lambsquarters: 95
[2]; [9]
  Plant response rating, Velvetleaf: 20
[2]; [10]
  Plant response rating, Velvetleaf: 25
[2]; [11]
  Plant response rating, Velvetleaf: 35
[2]; [12]
  Plant response rating, Velvetleaf: 50
Corn (Zea mays); [17]
  Corn plant response rating: 30
Corn (Zea mays); [18]
  Corn plant response rating: 50
Corn (Zea mays); [24]
  Plant response rating, Corn: 20
Corn (Zea mays); [25]
  Plant response rating, Corn: 20
[3]; [17]
  Crabgrass, Large plant response rating: 70
[3]; [18]
  Crabgrass, Large plant response rating: 90
[3]; [24]
  Plant response rating, Crabgrass, Large: 30
[3]; [25]
  Plant response rating, Crabgrass, Large: 90
[4]; [17]
  Wheat plant response rating: 40
[4]; [18]
  Wheat plant response rating: 50
[4]; [24]
  Plant response rating, Wheat: 0
[4]; [25]
  Plant response rating, Wheat: 20
[5]; [17]
  Foxtail, Giant plant response rating: 90
[5]; [18]
  Foxtail, Giant plant response rating: 90
[5]; [24]
  Plant response rating, Foxtail, Giant: 100
[5]; [25]
  Plant response rating, Foxtail, Giant: 100
[6]; [9]
  Plant response rating, Ryegrass, Italian: 10
[6]; [10]
  Plant response rating, Ryegrass, Italian: 25
[6]; [11]
  Plant response rating, Ryegrass, Italian: 25
[6]; [12]
  Plant response rating, Ryegrass, Italian: 30
[7]; 250 g ai/ha
  Plant response rating, Sedge, Umbrella (0 to 100 scale, 0 is no effect, 100 is complete control): 95
[8]; [9]
  Plant response rating, Johnsongrass: 5
[8]; [10]
  Plant response rating, Johnsongrass: 5
[8]; [11]
  Plant response rating, Johnsongrass: 5
[8]; [12]
  Plant response rating, Johnsongrass: 10

## CCOCc1nn(-c2ccc(F)cc2)nc1Oc1ccnc(C(F)(F)F)c1 [Compound 163]
[2]; [13]
  Plant response rating, Velvetleaf: 0
[2]; [14]
  Plant response rating, Velvetleaf: 10
[2]; [15]
  Plant response rating, Velvetleaf: 20
[2]; [16]
  Plant response rating, Velvetleaf: 75
Corn (Zea mays); [17]
  Plant response rating, Corn: 20
Corn (Zea mays); [23]
  Corn plant response rating: 30
Corn (Zea mays); [19]
  Plant response rating, Corn: 0
Corn (Zea mays); [20]
  Plant response rating, Corn: 10
[3]; [17]
  Plant response rating, Crabgrass, Large: 70
[3]; [23]
  Crabgrass, Large plant response rating: 100
[3]; [19]
  Plant response rating, Crabgrass, Large: 100
[3]; [20]
  Plant response rating, Crabgrass, Large: 100
[4]; [17]
  Plant response rating, Wheat: 20
[4]; [23]
  Wheat plant response rating: 40
[4]; [19]
  Plant response rating, Wheat: 0
[4]; [20]
  Plant response rating, Wheat: 0
[5]; [17]
  Plant response rating, Foxtail, Giant: 60
[5]; [23]
  Foxtail, Giant plant response rating: 90
[5]; [19]
  Plant response rating, Foxtail, Giant: 100
[5]; [20]
  Plant response rating, Foxtail, Giant: 100
[6]; [13]
  Plant response rating, Ryegrass, Italian: 10
[6]; [14]
  Plant response rating, Ryegrass, Italian: 45
[6]; [15]
  Plant response rating, Ryegrass, Italian: 65
[6]; [16]
  Plant response rating, Ryegrass, Italian: 85
[7]; 125 g ai/ha
  Plant response rating, Sedge, Umbrella (0 to 100 scale, 0 is no effect, 100 is complete control): 80
[8]; [13]
  Plant response rating, Johnsongrass: 30
[8]; [14]
  Plant response rating, Johnsongrass: 35
[8]; [15]
  Plant response rating, Johnsongrass: 60
[8]; [16]
  Plant response rating, Johnsongrass: 60
